Source: the supplement of paper PMC10307832

What was measured:
Assay in all cases: relative viability (nuclei count vs DMSO), 5 days (fraction); higher = more cells survive
Tozasertib + Foretinib = compound: Cc1cc(Nc2cc(N3CCN(C)CC3)nc(Sc3ccc(NC(=O)C4CC4)cc3)n2)n[nH]1 [Tozasertib] + COc1cc2c(Oc3ccc(NC(=O)C4(C(=O)Nc5ccc(F)cc5)CC4)cc3F)ccnc2cc1OCCCN1CCOCC1 [Foretinib] (partner 0.25 µM)
Outline: (§1)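 Lung cancer cell lines in 1536-well plates got either a single drug or a fixed anchor-drug dose together with five library-drug doses (not always all listed) in √10 steps, by pin tool, on the day after seeding. Nuclei were counted after 5 days, and relative viability is the treated-to-vehicle ratio of nuclei counts. Values are medians of duplicate plates.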

Tozasertib + Olaparib = compound: Cc1cc(Nc2cc(N3CCN(C)CC3)nc(Sc3ccc(NC(=O)C4CC4)cc3)n2)n[nH]1 [Tozasertib] + O=C(c1cc(Cc2n[nH]c(=O)c3ccccc23)ccc1F)N1CCN(C(=O)C2CC2)CC1 [Olaparib] (partner 8 µM)
Outline: as §1

Tozasertib + Pictilisib = compound: Cc1cc(Nc2cc(N3CCN(C)CC3)nc(Sc3ccc(NC(=O)C4CC4)cc3)n2)n[nH]1 [Tozasertib] + CS(=O)(=O)N1CCN(Cc2cc3nc(-c4cccc5[nH]ncc45)nc(N4CCOCC4)c3s2)CC1 [Pictilisib] (partner 1 µM)
Outline: as §1

Tozasertib + Crizotinib = compound: Cc1cc(Nc2cc(N3CCN(C)CC3)nc(Sc3ccc(NC(=O)C4CC4)cc3)n2)n[nH]1 [Tozasertib] + C[C@@H](Oc1cc(-c2cnn(C3CCNCC3)c2)cnc1N)c1c(Cl)ccc(F)c1Cl [Crizotinib] (partner 1 µM)
Outline: as §1

Tozasertib + Linsitinib = compound: Cc1cc(Nc2cc(N3CCN(C)CC3)nc(Sc3ccc(NC(=O)C4CC4)cc3)n2)n[nH]1 [Tozasertib] + C[C@]1(O)C[C@@H](c2nc(-c3ccc4ccc(-c5ccccc5)nc4c3)c3c(N)nccn32)C1 [Linsitinib] (partner 1 µM)
Outline: as §1

NCI-H1703
relative viability (Tozasertib + Foretinib; first compound 0.004 µM): 0.36
relative viability (Tozasertib + Foretinib; first compound 0.01265 µM): 0.409
relative viability (Tozasertib + Foretinib; first compound 0.04 µM): 0.337
relative viability (Tozasertib + Foretinib; first compound 0.1265 µM): 0.327
relative viability (Tozasertib + Olaparib; first compound 0.004 µM): 0.492
relative viability (Tozasertib + Olaparib; first compound 0.01265 µM): 0.391
relative viability (Tozasertib + Olaparib; first compound 0.04 µM): 0.476
relative viability (Tozasertib + Olaparib; first compound 0.1265 µM): 0.45
relative viability (Tozasertib + Pictilisib; first compound 0.004 µM): 0.287
relative viability (Tozasertib + Pictilisib; first compound 0.01265 µM): 0.221
relative viability (Tozasertib + Pictilisib; first compound 0.04 µM): 0.248
relative viability (Tozasertib + Pictilisib; first compound 0.1265 µM): 0.23
relative viability (Tozasertib + Crizotinib; first compound 0.004 µM): 1.58
relative viability (Tozasertib + Crizotinib; first compound 0.01265 µM): 0.848
relative viability (Tozasertib + Crizotinib; first compound 0.04 µM): 0.318
relative viability (Tozasertib + Crizotinib; first compound 0.1265 µM): 0.24
relative viability (Tozasertib + Linsitinib; first compound 0.004 µM): 1.26
relative viability (Tozasertib + Linsitinib; first compound 0.01265 µM): 0.833
relative viability (Tozasertib + Linsitinib; first compound 0.04 µM): 0.808
relative viability (Tozasertib + Linsitinib; first compound 0.1265 µM): 0.626

NCI-H1734
relative viability (Tozasertib + Foretinib; first compound 0.004 µM): 0.888
relative viability (Tozasertib + Foretinib; first compound 0.04 µM): 0.824
relative viability (Tozasertib + Foretinib; first compound 0.1265 µM): 0.414
relative viability (Tozasertib + Olaparib; first compound 0.004 µM): 0.734
relative viability (Tozasertib + Olaparib; first compound 0.01265 µM): 0.577
relative viability (Tozasertib + Olaparib; first compound 0.04 µM): 0.66
relative viability (Tozasertib + Olaparib; first compound 0.1265 µM): 0.374
relative viability (Tozasertib + Pictilisib; first compound 0.004 µM): 0.528
relative viability (Tozasertib + Pictilisib; first compound 0.01265 µM): 0.494
relative viability (Tozasertib + Pictilisib; first compound 0.04 µM): 0.518
relative viability (Tozasertib + Pictilisib; first compound 0.1265 µM): 0.401
relative viability (Tozasertib + Crizotinib; first compound 0.004 µM): 0.703
relative viability (Tozasertib + Crizotinib; first compound 0.04 µM): 0.67
relative viability (Tozasertib + Crizotinib; first compound 0.1265 µM): 0.258
relative viability (Tozasertib + Linsitinib; first compound 0.004 µM): 0.894
relative viability (Tozasertib + Linsitinib; first compound 0.01265 µM): 0.938
relative viability (Tozasertib + Linsitinib; first compound 0.04 µM): 0.938
relative viability (Tozasertib + Linsitinib; first compound 0.1265 µM): 0.616

NCI-H1755
relative viability (Tozasertib + Foretinib; first compound 0.004 µM): 0.984
relative viability (Tozasertib + Foretinib; first compound 0.01265 µM): 0.455
relative viability (Tozasertib + Foretinib; first compound 0.04 µM): 0.893
relative viability (Tozasertib + Foretinib; first compound 0.1265 µM): 0.743
relative viability (Tozasertib + Olaparib; first compound 0.004 µM): 0.854
relative viability (Tozasertib + Olaparib; first compound 0.01265 µM): 0.879
relative viability (Tozasertib + Olaparib; first compound 0.04 µM): 0.822
relative viability (Tozasertib + Olaparib; first compound 0.1265 µM): 0.59
relative viability (Tozasertib + Pictilisib; first compound 0.004 µM): 0.422
relative viability (Tozasertib + Pictilisib; first compound 0.01265 µM): 0.395
relative viability (Tozasertib + Pictilisib; first compound 0.04 µM): 0.444
relative viability (Tozasertib + Pictilisib; first compound 0.1265 µM): 0.232
relative viability (Tozasertib + Crizotinib; first compound 0.004 µM): 0.803
relative viability (Tozasertib + Crizotinib; first compound 0.01265 µM): 0.89
relative viability (Tozasertib + Crizotinib; first compound 0.04 µM): 0.852
relative viability (Tozasertib + Crizotinib; first compound 0.1265 µM): 0.634
relative viability (Tozasertib + Linsitinib; first compound 0.004 µM): 0.976
relative viability (Tozasertib + Linsitinib; first compound 0.01265 µM): 0.948
relative viability (Tozasertib + Linsitinib; first compound 0.04 µM): 0.999
relative viability (Tozasertib + Linsitinib; first compound 0.1265 µM): 0.865

NCI-H1915
relative viability (Tozasertib + Foretinib; first compound 0.004 µM): 1.16
relative viability (Tozasertib + Foretinib; first compound 0.01265 µM): 1.02
relative viability (Tozasertib + Foretinib; first compound 0.04 µM): 1.06
relative viability (Tozasertib + Foretinib; first compound 0.1265 µM): 0.862
relative viability (Tozasertib + Olaparib; first compound 0.004 µM): 0.248
relative viability (Tozasertib + Olaparib; first compound 0.01265 µM): 0.275
relative viability (Tozasertib + Olaparib; first compound 0.04 µM): 0.212
relative viability (Tozasertib + Olaparib; first compound 0.1265 µM): 0.212
relative viability (Tozasertib + Pictilisib; first compound 0.004 µM): 1.06
relative viability (Tozasertib + Pictilisib; first compound 0.01265 µM): 0.862
relative viability (Tozasertib + Pictilisib; first compound 0.04 µM): 0.872
relative viability (Tozasertib + Pictilisib; first compound 0.1265 µM): 0.635
relative viability (Tozasertib + Crizotinib; first compound 0.004 µM): 0.98
relative viability (Tozasertib + Crizotinib; first compound 0.01265 µM): 0.889
relative viability (Tozasertib + Crizotinib; first compound 0.04 µM): 0.873
relative viability (Tozasertib + Crizotinib; first compound 0.1265 µM): 0.721
relative viability (Tozasertib + Linsitinib; first compound 0.004 µM): 1.1
relative viability (Tozasertib + Linsitinib; first compound 0.01265 µM): 1.06
relative viability (Tozasertib + Linsitinib; first compound 0.1265 µM): 1.05

NCI-H1944
relative viability (Tozasertib + Foretinib; first compound 0.004 µM): 0.876
relative viability (Tozasertib + Foretinib; first compound 0.01265 µM): 0.753
relative viability (Tozasertib + Foretinib; first compound 0.04 µM): 0.72
relative viability (Tozasertib + Foretinib; first compound 0.1265 µM): 0.459
relative viability (Tozasertib + Olaparib; first compound 0.004 µM): 0.406
relative viability (Tozasertib + Olaparib; first compound 0.01265 µM): 0.38
relative viability (Tozasertib + Olaparib; first compound 0.04 µM): 0.398
relative viability (Tozasertib + Olaparib; first compound 0.1265 µM): 0.287
relative viability (Tozasertib + Pictilisib; first compound 0.004 µM): 0.36
relative viability (Tozasertib + Pictilisib; first compound 0.01265 µM): 0.339
relative viability (Tozasertib + Pictilisib; first compound 0.04 µM): 0.331
relative viability (Tozasertib + Pictilisib; first compound 0.1265 µM): 0.275
relative viability (Tozasertib + Crizotinib; first compound 0.004 µM): 0.943
relative viability (Tozasertib + Crizotinib; first compound 0.01265 µM): 0.962
relative viability (Tozasertib + Crizotinib; first compound 0.04 µM): 1.04
relative viability (Tozasertib + Crizotinib; first compound 0.1265 µM): 0.616
relative viability (Tozasertib + Linsitinib; first compound 0.004 µM): 1.12
relative viability (Tozasertib + Linsitinib; first compound 0.01265 µM): 1.25
relative viability (Tozasertib + Linsitinib; first compound 0.04 µM): 1.18
relative viability (Tozasertib + Linsitinib; first compound 0.1265 µM): 0.798

NCI-H1975
relative viability (Tozasertib + Foretinib; first compound 0.004 µM): 1
relative viability (Tozasertib + Foretinib; first compound 0.01265 µM): 1.03
relative viability (Tozasertib + Foretinib; first compound 0.04 µM): 1.03
relative viability (Tozasertib + Foretinib; first compound 0.1265 µM): 0.844
relative viability (Tozasertib + Olaparib; first compound 0.004 µM): 0.829
relative viability (Tozasertib + Olaparib; first compound 0.01265 µM): 0.739
relative viability (Tozasertib + Olaparib; first compound 0.04 µM): 0.795
relative viability (Tozasertib + Olaparib; first compound 0.1265 µM): 0.74
relative viability (Tozasertib + Pictilisib; first compound 0.004 µM): 0.323
relative viability (Tozasertib + Pictilisib; first compound 0.01265 µM): 0.278
relative viability (Tozasertib + Pictilisib; first compound 0.04 µM): 0.295
relative viability (Tozasertib + Pictilisib; first compound 0.1265 µM): 0.238
relative viability (Tozasertib + Crizotinib; first compound 0.004 µM): 1.05
relative viability (Tozasertib + Crizotinib; first compound 0.01265 µM): 1.03
relative viability (Tozasertib + Crizotinib; first compound 0.04 µM): 0.853
relative viability (Tozasertib + Crizotinib; first compound 0.1265 µM): 0.604
relative viability (Tozasertib + Linsitinib; first compound 0.004 µM): 0.961
relative viability (Tozasertib + Linsitinib; first compound 0.01265 µM): 1.06
relative viability (Tozasertib + Linsitinib; first compound 0.04 µM): 1.04
relative viability (Tozasertib + Linsitinib; first compound 0.1265 µM): 0.953

NCI-H1993
relative viability (Tozasertib + Foretinib; first compound 0.004 µM): 0.944
relative viability (Tozasertib + Foretinib; first compound 0.01265 µM): 0.732
relative viability (Tozasertib + Foretinib; first compound 0.04 µM): 0.848
relative viability (Tozasertib + Foretinib; first compound 0.1265 µM): 0.726
relative viability (Tozasertib + Olaparib; first compound 0.004 µM): 0.998
relative viability (Tozasertib + Olaparib; first compound 0.01265 µM): 1.05
relative viability (Tozasertib + Olaparib; first compound 0.04 µM): 0.897
relative viability (Tozasertib + Olaparib; first compound 0.1265 µM): 0.722
relative viability (Tozasertib + Pictilisib; first compound 0.01265 µM): 0.759
relative viability (Tozasertib + Pictilisib; first compound 0.1265 µM): 0.632
relative viability (Tozasertib + Crizotinib; first compound 0.004 µM): 0.931
relative viability (Tozasertib + Crizotinib; first compound 0.01265 µM): 0.776
relative viability (Tozasertib + Crizotinib; first compound 0.04 µM): 0.845
relative viability (Tozasertib + Crizotinib; first compound 0.1265 µM): 0.581
relative viability (Tozasertib + Linsitinib; first compound 0.004 µM): 0.8
relative viability (Tozasertib + Linsitinib; first compound 0.01265 µM): 0.668
relative viability (Tozasertib + Linsitinib; first compound 0.04 µM): 0.649
relative viability (Tozasertib + Linsitinib; first compound 0.1265 µM): 0.616

NCI-H2009
relative viability (Tozasertib + Foretinib; first compound 0.004 µM): 1.21
relative viability (Tozasertib + Foretinib; first compound 0.01265 µM): 1.19
relative viability (Tozasertib + Foretinib; first compound 0.04 µM): 1.33
relative viability (Tozasertib + Foretinib; first compound 0.1265 µM): 0.994
relative viability (Tozasertib + Olaparib; first compound 0.004 µM): 0.739
relative viability (Tozasertib + Olaparib; first compound 0.01265 µM): 0.69
relative viability (Tozasertib + Olaparib; first compound 0.04 µM): 0.692
relative viability (Tozasertib + Olaparib; first compound 0.1265 µM): 0.698
relative viability (Tozasertib + Pictilisib; first compound 0.004 µM): 0.851
relative viability (Tozasertib + Pictilisib; first compound 0.01265 µM): 0.79
relative viability (Tozasertib + Pictilisib; first compound 0.1265 µM): 0.552
relative viability (Tozasertib + Crizotinib; first compound 0.004 µM): 1.06
relative viability (Tozasertib + Crizotinib; first compound 0.01265 µM): 1.06
relative viability (Tozasertib + Crizotinib; first compound 0.04 µM): 0.988
relative viability (Tozasertib + Crizotinib; first compound 0.1265 µM): 0.847
relative viability (Tozasertib + Linsitinib; first compound 0.004 µM): 1.19
relative viability (Tozasertib + Linsitinib; first compound 0.01265 µM): 1.22
relative viability (Tozasertib + Linsitinib; first compound 0.04 µM): 1.15
relative viability (Tozasertib + Linsitinib; first compound 0.1265 µM): 1.19
